{"source": "patent US20100204202A1", "about": "“DRUG FOR ALLEVIATING MOTOR COMPLICATIONS OR PSYCHIATRIC SYMPTOMS OF PARKINSON'S DISEASE” (Asubio Pharma Co., Ltd., priority 2007, published 2010)", "key": {"[1]": {"tested_on": "Parkinson's disease model rats", "test": "Levodopa-induced striatal dopamine release and rotational behavior, brain microdialysis in Parkinson's disease model rats", "format": "in vivo, rat", "settings": "for rotational behavior of the rats: 3 and 10 mg/kg i.p.", "description": "For preparing Parkinson's disease model rats by unilateral nigrostriatal dopamine nerve destruction, Crl: CD (SD) male rats supplied by Charles River Japan (8 weeks old at start of test) were used. About 30 minutes before injection of 6-hydroxydopamine, the norepinephrine reuptake inhibitor desipramine (25 mg/kg) was intraperitoneally administered, then the rat head was fixed to a brain stereotaxic apparatus under anesthesia by intraperitoneal administration of pentobarbital (40 mg/kg). 6-hydroxydopamine (total amount 8 μg/4 μL) including ascorbic acid was dissolved in physiological saline, then was injected at two locations of the right medial forebrain bundle (at 1.8 mm posterior to the bregma, 2.0 mm right-lateral to the median line and 8.3 mm ventral to the surface of the skill and 4.5 mm to the rear from the bregma, 1.4 mm to the right from the midline, and a depth of 8.5 mm from the cranium) through a microinjection syringe at a flow rate of 1.0 μL/min over 4 minutes, then was allowed to stand for 5 minutes. To confirm the success of dopamine nerve destruction after about 3 weeks from the above surgery, the rotational behavior of the rats after subcutaneous administration of the dopamine receptor agonist apomorphine (0.05 mg/kg) was measured using a rotational behavior-measuring equipment (Rotameter 6ch System, Muromachi Kikai Co., Ltd.). Rats rotating over 100 times in the opposite direction to the injection in the one hour right after apomorphine administration were judged to have unilateral nigrastriatal dopamine nerve destruction and were used for the subsequent tests.\nFurthermore, from about one week later, the rats were given repeated intraperitoneal administration of levodopa (25 mg/kg)+peripheral dopa-decarboxylase inhibitor benserazide (10 mg/kg) (hereinafter referred to as “repeated doses of levodopa”) (twice a day, from Monday to Friday) for 6 weeks.\nFor the brain microdialysis guide cannule insertion surgery, under anesthesia by pentobarbital (40 mg/kg intraperitoneal administration), the head of each rat was fixed on a brain stereotaxic apparatus, then a brain microdialysis guide cannule (Carnegie Medicin PC12 guide cannule) was inserted into the right striatum (0.5 mm in front of the bregma, 3.0 mm from the midline to the right, and 4.0 mm deep from the cranium) and dental cement was used to fix it to the rat skull. […] The obtained dialysate was immediately measured for dopamine concentration using a high performance liquid chromatography system with an electrochemical detector (LC-ECD). Further, every 30 minutes after levodopa administration, the number of rotations in 5 minutes to the side opposite to the 6-hydroxydopamine injection side was visually measured. […]"}, "[2]": {"tested_on": "Parkinson's disease patients", "test": "Clinical test of efficacy, safety and tolerability in patients with motor complications associated with Parkinson's disease", "format": "in vivo, human", "description": "The efficacy of SUN N4057 on motor complications accompanying levodopa therapy in Parkinson's disease patients was studied in randomized, double-blind, placebo-controlled, multicenter, international, preliminary study. The patients aged 40 to 85 years, having idiopathic Parkinson's disease fulfilling the United Kingdom Parkinson's Disease Society (UK PDS) brain bank diagnostic criteria, having a presumed or confirmed diagnosis of Parkinson's disease in Stages 2 to 4 on the Hoehn & Yahr classification scale when in an “off” state, having a diagnosis of Parkinson's disease for at least 5 years, and being on a stable regimen of levodopa (L-dopa)/carbidopa for 30 days prior to the administration of the tested drug were enrolled into the study.\nAfter providing their informed consent, the subjects were screened in 9 to 22 days before scheduled date of start of administration. During the screening phase, the patients continued to take their usual regimen of antiparkinsonian drugs including combinations of levodopa and carbidopa or combined use of single drugs.\nAt the baseline (8±2 days before scheduled date of start of administration), the subjects returned to the clinic for a baseline assessment of motor fluctuations over an 8-hour period. They received the first morning dose of the patient's usual anti-Parkinson's disease drugs (including combination of levodopa and carbidopa or combined use of single drugs), and the 8 hour evaluation began approximately 1 hour after taking the initial treatment. Each hour for 8 hours, the patient were assessed and it was recorded whether the patient was in the “on” (without dyskinesia), “on with dyskinesia,” or “off” motor states. The Unified Parkinson's Disease Rating Scale (UPDRS) Part III and the Abnormal Involuntary Movement Scale AIMS were also completed each hour over the 8-hour observation period.\nThe subjects judged eligible after the screening and baseline evaluation were randomly assigned in a 3:1 ratio (3 active:1 placebo) to receive SUN N4057 or matching placebo. The subjects received continuous intravenous infusion of SUN N4057 (target plasma concentration of 30 ng/mL) or a placebo for 12 hours a day for 2 consecutive days. The dose regimen was selected to reach the target plasma concentration 1 hour after the start of administration and to be maintained for 11 hours. The mean dosage of SUN N4057 for the patients was 13.123 mg on day 1 and 9.550 mg on day 2.\nOn day 1, motor assessments (recording of “on” or “off” periods), the Unified Parkinson's Disease Rating Scale (UPDRS) Part III, and the Abnormal Involuntary Movement Scale (AIMS) were conducted immediately prior to dosing with regular antiparkinsonian medications. After the first morning dose of the regular antiparkinsonian medication was administered, intravenous infusion of SUN N4057 or placebo was started. For 8 hours from the start of infusion, motor assessments, including the UPDRS Part III, AIMS, and recording of “on” and “off” periods were to be completed hourly."}, "[3]": {"settings": "After administration (day 2), i.v. infusion 12 hours a day, n = 18"}}, "note": "Where a name gives a salt, the structure may show the parent alone."}
{"smiles": "O=C1c2ccccc2OC=C(Cl)N1CCCCN1CC=C(c2ccccn2)CC1", "note": "[SUN N4057, 3-chloro-4,5-dihydro-4-{4-[4-(2-pyridyl)-1,2,3,6-tetrahydropyridin-1-yl]butyl}-1,4-benzoxazepin-5-one.dihydrochloride-dihydrate]", "values": [{"measurement": "increase of the amount of striatal dopamine release due to levodopa", "setting": "[1]; 3 and 10 mg/kg i.p. 20 minutes before levodopa 25 mg/kg, week 6 of repeated levodopa", "result": "inhibitory action"}, {"measurement": "peak time of the amount of dopamine release", "setting": "[1]; 3 and 10 mg/kg i.p. before levodopa", "result": "delayed"}, {"measurement": "rotational behavior of the rats", "setting": "[1]; 150 to 210 minutes after levodopa dosage", "result": "increase"}, {"measurement": "rotational behavior of the rats", "setting": "[1]; 30 minutes after levodopa administration", "result": "decreased"}, {"measurement": "Percentage of off time", "setting": "[2]; [3]", "result": 9.7, "unit": "%"}, {"measurement": "Percentage of on time with dyskinesia", "setting": "[2]; [3]", "result": 49.3, "unit": "%"}, {"measurement": "Percentage of on time without dyskinesia", "setting": "[2]; [3]", "result": 41.0, "unit": "%"}, {"measurement": "serious adverse events or deaths", "setting": "[2]; clinical study", "result": "no serious adverse events or deaths were reported"}, {"measurement": "decrease of the percentage of off time in the comparison with baseline", "setting": "[2]; day 2 (9.7-20.8)", "result": 11.1, "unit": "points"}, {"measurement": "increase of the percentage of on time without dyskinesia in the comparison with baseline", "setting": "[2]; day 2 (41.0-18.8)", "result": 22.2, "unit": "points"}, {"measurement": "percentage of responder (dyskinesia by AIMS improved in severity or suppressed to zero without prolongation of off time)", "setting": "[2]; day 2, placebo 0%, p=0.02", "result": 56, "unit": "%"}, {"measurement": "UPDRS Part 3 decline in comparison with the baseline", "setting": "[2]; day 2 of administration, placebo 0.9", "result": 4.4, "unit": "point"}]}
